#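 Values below derive from 48-hour exposures of cells grown in 96-well plates, with endpoints linearly interpolated between the two concentrations bracketing the appropriate inhibition level. The concentration for 50% growth inhibition is given as GI50. TGI: concentration producing complete growth inhibition.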
# How the values were obtained:
# Assay in all cases: NCI anticancer screen, dose series, 48 h
# [1] = system: 786-0 renal
# [2] = system: A498 renal
# [3] = system: A549 NSCLC
# [4] = system: ACHN renal
# [5] = system: BT-549 breast
# [6] = system: CAKI-1 renal
# [7] = system: CCRF-CEM leukemia
# [8] = system: COLO 205 colon
# [9] = system: DU-145 prostate
# [10] = system: EKVX NSCLC
# [11] = system: HCC-2998 colon
# [12] = system: HCT-116 colon
# [13] = system: HCT-15 colon
# [14] = system: HL-60(TB) leukemia
# [15] = system: HOP-62 NSCLC
# [16] = system: HOP-92 NSCLC
# [17] = system: HS 578T breast
# [18] = system: HT29 colon
# [19] = system: IGROV1 ovarian
# [20] = system: K-562 leukemia
# [21] = system: KM12 colon
# [22] = system: LOX IMVI melanoma
# [23] = system: M14 melanoma
# [24] = system: MALME-3M melanoma
# [25] = system: MCF7 breast
# [26] = system: MDA-MB-231 breast
# [27] = system: MDA-MB-435
# [28] = system: MDA-MB-468 breast
# [29] = system: MOLT-4 leukemia
# [30] = system: NCI-H226 lung
# [31] = system: NCI-H23 lung
# [32] = system: NCI-H460 lung
# [33] = system: NCI-H522 lung
# [34] = system: NCI/ADR-RES ovarian
# [35] = system: OVCAR-3 ovarian
# [36] = system: OVCAR-4 ovarian
# [37] = system: OVCAR-5 ovarian
# [38] = system: OVCAR-8 ovarian
# [39] = system: PC-3 prostate
# [40] = system: RPMI-8226 leukemia
# [41] = system: RXF 393 renal
# [42] = system: SF-268 CNS
# [43] = system: SF-295 CNS
# [44] = system: SF-539 CNS
# [45] = system: SK-MEL-2 melanoma
# [46] = system: SK-MEL-28 melanoma
# [47] = system: SK-MEL-5 melanoma
# [48] = system: SK-OV-3 ovarian
# [49] = system: SN12C renal
# [50] = system: SNB-19 CNS
# [51] = system: SNB-75 CNS
# [52] = system: SR leukemia
# [53] = system: SW-620 colon
# [54] = system: T-47D breast
# [55] = system: TK-10 renal
# [56] = system: U251 CNS
# [57] = system: UACC-257 melanoma
# [58] = system: UACC-62 melanoma
# [59] = system: UO-31 renal
smiles,measurement,setting,value
CCOC(=O)c1ccc(NC(=O)CSC(CC(=O)c2sc(Nc3ccccn3)nc2C)c2ccccc2F)cc1 (stereo not drawn),GI50,[1],24.8 µM
same,TGI,[1],> 100 µM
same,GI50,[2],69.2 µM
same,TGI,[2],> 100 µM
same,GI50,[3],75.7 µM
same,TGI,[3],> 100 µM
same,GI50,[4],45.6 µM
same,TGI,[4],> 100 µM
same,GI50,[5],14.7 µM
same,TGI,[5],81.5 µM
same,GI50,[6],11.5 µM
same,TGI,[6],> 100 µM
same,GI50,[7],18.6 µM
same,TGI,[7],> 100 µM
same,GI50,[8],> 100 µM
same,TGI,[8],> 100 µM
same,GI50,[9],67.2 µM
same,TGI,[9],> 100 µM
same,GI50,[10],19 µM
same,TGI,[10],> 100 µM
same,GI50,[11],23.1 µM
same,TGI,[11],> 100 µM
same,GI50,[12],23 µM
same,TGI,[12],> 100 µM
same,GI50,[13],25.8 µM
same,TGI,[13],> 100 µM
same,GI50,[14],21.4 µM
same,TGI,[14],> 100 µM
same,GI50,[15],37.5 µM
same,TGI,[15],> 100 µM
same,GI50,[16],12.5 µM
same,TGI,[16],> 100 µM
same,GI50,[17],14.9 µM
same,TGI,[17],94.8 µM
same,GI50,[18],58.3 µM
same,TGI,[18],> 100 µM
same,GI50,[19],12.1 µM
same,TGI,[19],83.3 µM
same,GI50,[20],30.4 µM
same,TGI,[20],> 100 µM
same,GI50,[21],55.6 µM
same,TGI,[21],> 100 µM
same,GI50,[22],0.312 µM
same,TGI,[22],> 100 µM
same,GI50,[23],19.4 µM
same,TGI,[23],> 100 µM
same,GI50,[24],25.4 µM
same,TGI,[24],> 100 µM
same,GI50,[25],15.4 µM
same,TGI,[25],> 100 µM
same,GI50,[26],19.3 µM
same,TGI,[26],> 100 µM
same,GI50,[27],26.3 µM
same,TGI,[27],> 100 µM
same,GI50,[28],4.24 µM
same,TGI,[28],44.3 µM
same,GI50,[29],32.2 µM
same,TGI,[29],> 100 µM
same,GI50,[30],2.52 µM
same,TGI,[30],85.9 µM
same,GI50,[31],22.7 µM
same,TGI,[31],> 100 µM
same,GI50,[32],31.2 µM
same,TGI,[32],> 100 µM
same,GI50,[33],21.6 µM
same,TGI,[33],> 100 µM
same,GI50,[34],24.1 µM
same,TGI,[34],> 100 µM
same,GI50,[35],31.7 µM
same,TGI,[35],> 100 µM
same,GI50,[36],66.1 µM
same,TGI,[36],> 100 µM
same,GI50,[37],74.4 µM
same,TGI,[37],> 100 µM
same,GI50,[38],53.6 µM
same,TGI,[38],> 100 µM
same,GI50,[39],23.8 µM
same,TGI,[39],> 100 µM
same,GI50,[40],8.29 µM
same,TGI,[40],> 100 µM
same,GI50,[41],2.59 µM
same,TGI,[41],23.5 µM
same,GI50,[42],43.1 µM
same,TGI,[42],> 100 µM
same,GI50,[43],32.2 µM
same,TGI,[43],> 100 µM
same,GI50,[44],32.5 µM
same,TGI,[44],> 100 µM
same,GI50,[45],44.9 µM
same,TGI,[45],> 100 µM
same,GI50,[46],38.7 µM
same,TGI,[46],> 100 µM
same,GI50,[47],18.6 µM
same,TGI,[47],82 µM
same,GI50,[48],26 µM
same,TGI,[48],> 100 µM
same,GI50,[49],28 µM
same,TGI,[49],> 100 µM
same,GI50,[50],36.9 µM
same,TGI,[50],> 100 µM
same,GI50,[51],3.59 µM
same,TGI,[51],48.8 µM
same,GI50,[52],24.1 µM
same,TGI,[52],> 100 µM
same,GI50,[53],75.3 µM
same,TGI,[53],> 100 µM
same,GI50,[54],18 µM
same,TGI,[54],> 100 µM
same,GI50,[55],82.3 µM
same,TGI,[55],> 100 µM
same,GI50,[56],47.8 µM
same,TGI,[56],> 100 µM
same,GI50,[57],38.4 µM
same,TGI,[57],> 100 µM
same,GI50,[58],16.1 µM
same,TGI,[58],> 100 µM
same,GI50,[59],3.19 µM
same,TGI,[59],> 100 µM
